Values joined by “and” are separate entries in the source; they are usually repeats but may differ in a detail not shown here. Identical values can stand only once. Toxic doses and inconclusive results are not listed.
System: BDF1 mice, P388 leukemia ip, median survival T/C
Test: NCI In Vivo Anticancer Drug Screen. Data for tumor model P388 Leukemia (intraperitoneal) in B6D2F1 (BDF1) mice
Settings: endpoint: median survival time, higher = longer survival
How it was run: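 Antitumour effect was judged in vivo: survival in drug-treated mice, normalised to that of vehicle-dosed controls, gives the reported T/C.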

[1] = dose: 50.0 mg/kg/injection, schedule: Q01DX009 (ip), vehicle: saline
[2] = dose: 50.0 mg/kg/injection, schedule: Q01DX009 (ip), vehicle: saline with Tween-80
[3] = dose: 100.0 mg/kg/injection, schedule: Q01DX009 (ip), vehicle: saline with Tween-80
[4] = dose: 100.0 mg/kg/injection, schedule: Q04DX003 (ip), vehicle: saline
[5] = dose: 200.0 mg/kg/injection, schedule: Q01DX009 (ip), vehicle: saline with Tween-80
[6] = dose: 200.0 mg/kg/injection, schedule: Q04DX003 (ip), vehicle: saline
[7] = dose: 400.0 mg/kg/injection, schedule: Q01DX009 (ip), vehicle: saline with Tween-80
[8] = dose: 12.5 mg/kg/injection, schedule: Q01DX009 (ip), vehicle: saline
[9] = dose: 12.5 mg/kg/injection, schedule: Q04DX003 (ip), vehicle: saline with Tween-80
[10] = dose: 25.0 mg/kg/injection, schedule: Q04DX003 (ip), vehicle: saline with Tween-80
[11] = dose: 25.0 mg/kg/injection, schedule: Q01DX009 (ip), vehicle: saline
[12] = dose: 100.0 mg/kg/injection, schedule: Q04DX003 (ip), vehicle: Klucel (hydroxypropylcellulose) (HPC)
[13] = dose: 100.0 mg/kg/injection, schedule: Q04DX003 (ip), vehicle: saline with Tween-80
[14] = dose: 200.0 mg/kg/injection, schedule: Q04DX003 (ip), vehicle: saline with Tween-80
[15] = dose: 400.0 mg/kg/injection, schedule: Q04DX003 (ip), vehicle: saline with Tween-80

CC/C(=N\NS(=O)(=O)c1ccc(C)cc1)c1ccc(OC)cc1
T/C [1]: 92 % of control
T/C (dose: 100.0 mg/kg/injection, schedule: Q01DX009 (ip), vehicle: saline): 104 % of control
T/C (dose: 200.0 mg/kg/injection, schedule: Q01DX009 (ip), vehicle: saline): 93 % of control

CC(c1ccccc1)c1ccc(O)cc1 (centres undefined)
T/C [2]: 110 % of control
T/C [3]: 110 % of control
T/C [4]: 100 % of control
T/C [5]: 110 % of control
T/C [6]: 91 % of control

Nc1ccc(O)c2ncccc12
T/C (dose: 7.5 mg/kg/injection, schedule: Q01DX010 (ip), vehicle: saline): 115 % of control
T/C (dose: 15.0 mg/kg/injection, schedule: Q01DX010 (ip), vehicle: saline): 110 % of control

Clc1nc(Cl)c(Nc2ccn[nH]2)nc1Cl
T/C [2]: 100 % of control
T/C [3]: 95 % of control and 100 % of control
T/C [5]: 100 % of control
T/C [7]: 95 % of control

Clc1nc2ccccc2nc1CI
T/C (dose: 1.8 mg/kg/injection, schedule: Q01DX009 (ip), vehicle: saline): 118 % of control
T/C (dose: 2.7 mg/kg/injection, schedule: Q01DX009 (ip), vehicle: saline): 122 % of control
T/C (dose: 8.75 mg/kg/injection, schedule: Q04DX003 (ip), vehicle: saline): 113 % of control
T/C (dose: 12.5 mg/kg/injection, schedule: Q01DX009 (ip), vehicle: saline with Tween-80): 118 % of control
T/C [8]: 90 % of control
T/C [9]: 113 % of control
T/C (dose: 17.5 mg/kg/injection, schedule: Q04DX003 (ip), vehicle: saline): 121 % of control
T/C [10]: 118 % of control
T/C (dose: 35.0 mg/kg/injection, schedule: Q04DX003 (ip), vehicle: saline): 113 % of control
T/C (dose: 50.0 mg/kg/injection, schedule: Q04DX003 (ip), vehicle: saline): 113 % of control

Cc1ccc(C(=O)C[S+](C)C)c(C)c1
T/C (dose: 10.46 mg/kg/injection, schedule: Q01DX001 (ip), vehicle: saline): 109 % of control
T/C [8]: 100 % of control
T/C (dose: 20.93 mg/kg/injection, schedule: Q01DX001 (ip), vehicle: saline): 100 % of control
T/C [11]: 105 % of control
T/C (dose: 41.87 mg/kg/injection, schedule: Q01DX001 (ip), vehicle: saline): 100 % of control
T/C [1]: 100 % of control
T/C (dose: 56.25 mg/kg/injection, schedule: Q04DX003 (ip), vehicle: saline): 108 % of control
T/C (dose: 75.0 mg/kg/injection, schedule: Q01DX009 (ip), vehicle: saline): 100 % of control
T/C (dose: 112.5 mg/kg/injection, schedule: Q04DX003 (ip), vehicle: saline): 95 % of control

C[CH2][Sn]([CH2]C)([O]S(=O)(=O)CC12CCC(CC1=O)C2(C)C)[O]S(=O)(=O)CC12CCC(CC1=O)C2(C)C
T/C [8]: 173 % of control
T/C [11]: 195 % of control

Cc1c(C(=O)CCl)c(=O)n(-c2ccccc2)n1C
T/C (dose: 25.0 mg/kg/injection, schedule: Q01DX009 (ip), vehicle: Klucel (hydroxypropylcellulose) (HPC)): 100 % of control
T/C (dose: 25.0 mg/kg/injection, schedule: Q04DX003 (ip), vehicle: Klucel (hydroxypropylcellulose) (HPC)): 96 % of control
T/C (dose: 50.0 mg/kg/injection, schedule: Q01DX009 (ip), vehicle: Klucel (hydroxypropylcellulose) (HPC)): 104 % of control
T/C (dose: 50.0 mg/kg/injection, schedule: Q04DX003 (ip), vehicle: Klucel (hydroxypropylcellulose) (HPC)): 100 % of control
T/C (dose: 100.0 mg/kg/injection, schedule: Q01DX009 (ip), vehicle: Klucel (hydroxypropylcellulose) (HPC)): 91 % of control
T/C [12]: 100 % of control and 103 % of control

COC1=CC(=O)C(Cl)=C(OC)C1=O
T/C (dose: 0.78 mg/kg/injection, schedule: Q01DX009 (ip), vehicle: saline): 113 % of control
T/C (dose: 1.56 mg/kg/injection, schedule: Q01DX009 (ip), vehicle: saline): 113 % of control
T/C (dose: 3.13 mg/kg/injection, schedule: Q01DX009 (ip), vehicle: saline with Tween-80): 110 % of control
T/C (dose: 3.13 mg/kg/injection, schedule: Q01DX009 (ip), vehicle: saline): 104 % of control

CCOC(=S)N/N=C(\C)CC
T/C (dose: 2.5 mg/kg/injection, schedule: Q01DX009 (ip), vehicle: saline with Tween-80): 93 % of control
T/C (dose: 5.0 mg/kg/injection, schedule: Q01DX009 (ip), vehicle: saline with Tween-80): 93 % of control

O=C(Nc1ccccc1)OCc1ccc(OCc2ccccc2)cc1
T/C [2]: 89 % of control
T/C [3]: 122 % of control
T/C [5]: 105 % of control

Cc1ccc(C2(C#N)CCCC2)cc1
T/C [3]: 104 % of control
T/C [5]: 113 % of control

CC1(C)N=C(N)N=C(N)N1c1ccc(CCc2ccccc2)c(Cl)c1
T/C (dose: 4.0 mg/kg/injection, schedule: Q01DX009 (ip), vehicle: saline with Tween-80): 122 % of control

CN1CCC(OC(=O)c2ccc3c(c2)OCO3)CC1
T/C [9]: 100 % of control
T/C [10]: 117 % of control
T/C (dose: 50.0 mg/kg/injection, schedule: Q04DX003 (ip), vehicle: saline with Tween-80): 91 % of control

N#Cc1cnn2c(=O)[nH]cnc12
T/C (dose: 50.0 mg/kg/injection, schedule: Q01DX009 (ip), vehicle: other): 100 % of control
T/C (dose: 100.0 mg/kg/injection, schedule: Q01DX009 (ip), vehicle: other): 100 % of control
T/C [4]: 100 % of control
T/C (dose: 200.0 mg/kg/injection, schedule: Q01DX009 (ip), vehicle: other): 100 % of control
T/C [6]: 100 % of control
T/C (dose: 400.0 mg/kg/injection, schedule: Q04DX003 (ip), vehicle: saline): 118 % of control

O=N/N=c1/sc2ccccc2n1-c1ccccc1
T/C (dose: 25.0 mg/kg/injection, schedule: Q01DX001 (ip), vehicle: saline sonified): 100 % of control
T/C (dose: 50.0 mg/kg/injection, schedule: Q01DX001 (ip), vehicle: saline sonified): 104 % of control
T/C (dose: 100.0 mg/kg/injection, schedule: Q01DX001 (ip), vehicle: saline sonified): 100 % of control

COc1ccc(CN2CCN(Cc3ccc(OC)c(OC)c3)C2c2ccc(OC)c(OC)c2)cc1OC
T/C [3]: 109 % of control
T/C [13]: 105 % of control
T/C [5]: 100 % of control
T/C [14]: 105 % of control
T/C [7]: 100 % of control
T/C [15]: 95 % of control

CCc1ccc(NC(=O)c2ccccc2C(=O)O)cc1
T/C [13]: 122 % of control
T/C [14]: 104 % of control
T/C [15]: 109 % of control

O=C1c2ccccc2C(=O)c2c(NCCNCCNCCO)ccc(NCCNCCNCCO)c21
T/C (dose: 25.0 mg/kg/injection, schedule: Q01DX009 (ip), vehicle: water): 100 % of control
T/C (dose: 50.0 mg/kg/injection, schedule: Q01DX009 (ip), vehicle: water): 113 % of control
T/C (dose: 100.0 mg/kg/injection, schedule: Q01DX009 (ip), vehicle: water): 115 % of control

CCCC(C#N)(CCCl)c1ccccc1 (centres undefined)
T/C [3]: 100 % of control
T/C [5]: 108 % of control
T/C [7]: 112 % of control

CSP12(OCCO1)OCCO2
T/C (dose: 50.0 mg/kg/injection, schedule: Q01DX005 (ip), vehicle: saline): 94 % of control
T/C (dose: 100.0 mg/kg/injection, schedule: Q01DX005 (ip), vehicle: saline): 94 % of control
T/C (dose: 200.0 mg/kg/injection, schedule: Q01DX005 (ip), vehicle: saline): 91 % of control

COc1ccc(C2=CCCC2)cc1
T/C [12]: 108 % of control
T/C (dose: 200.0 mg/kg/injection, schedule: Q04DX003 (ip), vehicle: Klucel (hydroxypropylcellulose) (HPC)): 95 % of control
T/C (dose: 400.0 mg/kg/injection, schedule: Q04DX003 (ip), vehicle: Klucel (hydroxypropylcellulose) (HPC)): 100 % of control

COc1cc(NCCN2CCN(CCNc3cc(OC)cc4cccnc34)CC2)c2ncccc2c1
T/C [2]: 113 % of control
T/C [3]: 110 % of control
T/C [5]: 94 % of control

C[N-]N(C)C(=O)[S-].C[N-]N(C)C(=O)[S-].C[N-]N(C)C(=O)[S-].[Co]
T/C [13]: 105 % of control

COc1ccc2[nH]c3c(C)c4cc[n+](CCCCCCCC[n+]5ccc6c(C)c7[nH]c8ccc(OC)cc8c7c(C)c6c5)cc4c(C)c3c2c1
T/C (dose: 6.25 mg/kg/injection, schedule: Q04DX003 (ip), vehicle: other): 121 % of control

CC1Cc2c(Cl)cc(C(=O)NC(Cc3ccccc3)C(=O)O)c(O)c2C(=O)O1 (centres undefined)
T/C (dose: 0.25 mg/kg/injection, schedule: Q01DX009 (ip), vehicle: saline): 98 % of control
T/C (dose: 0.5 mg/kg/injection, schedule: Q01DX009 (ip), vehicle: saline): 116 % of control
T/C (dose: 1.0 mg/kg/injection, schedule: Q01DX009 (ip), vehicle: saline): 115 % of control

Source: PubChem BioAssay AID328 (DTP/NCI, 2004)
